Laboratory results reported in US20050208058A1, “Compositions and methods for modulating cell division” (priority 2003, published 2005).
d = 2'-deoxy (DNA)

Columns and labels:
Assay type in all cases: cell-based, human
GCP2 = assay: Immunofluorescence of GCP2 at the centrosome after siRNA treatment; conditions: vs siLamin; FIG. 1B
Experimental: To test the ability of siRNAs to silence centrosomal gene products, cells were treated with siRNAs for 24 hours. Cells were diploid, telomerase-immortalized human retinal pigment epithelial (RPE1) cells (hTERT-RPE1s from Clontech, Palo Alto, Calif.) (see Morales et al., Nat Genet, 21:115-118, 1999). siRNAs directed to δ-tubulin (SEQ ID NO:2), γ-tubulin (SEQ ID NO:4), GCP2 (SEQ ID NO:5), GCP3(SEQ ID NO:6), cNAP1 (SEQ ID NO:8), PCM1 (SEQ ID NO:9), ninein (SEQ ID NO:21), NEK2a (SEQ ID NO:10), centrin2 (SEQ ID NO:12), CDC14A (SEQ ID NO:13), gapcena (SEQ ID NO:15), nemo (SEQ ID NO:16), pericentrin (SEQ ID NO:23), lamin A/C (CUGGACUUCCAGAAGAACA, SEQ ID NO: 24) zyxin (UGUGGCUGUCAACGAACUC, SEQ ID NO:25), and p53 (GGACAAGGGUUGGGCUGGG, SEQ ID NO:26) were made as complementary single stranded 19-mer siRNAs with 3′ dTdT overhangs (Dharmacon Inc., Lafayette, Colo.), deprotected, annealed and delivered into cells using OLIGOFECTAMINE® from Invitrogen (Carlsbad, Calif.). Nucleotides were delivered in media containing up to 100 nanomolar concentrations of siRNAs. […]
FIG. 1B compares cells treated with siRNA to Lamin (siLamin, left panel) and GCP2 (siGCP2, right panel). Oval shaped fluorescence staining indicates nuclear DNA (large arrow). […]

RPE cells = assay: Flow cytometry (FACS) of nocodazole-induced shift from G1 to G2/M peak after siRNA treatment
Experimental: For flow cytometry (i.e., fluorescence-activated cell sorter or FACS) experiments, siRNAs were delivered to cells as described above, and were incubated for 50-70 hours. To synchronize cells, nocodazole was added to the cells to a concentration of 5 μg/mL for 12 hours. Cells were stained with propidium iodide and analyzed by flow cytometry (FACSCAN; Becton Dickinson) using FLOJO® software (Tree Star, Inc., Ashland, Oreg.).
In another approach to evaluating the effect requirement for centrosomal gene products, fluorescence assisted cell sorting (flow cytometry or FACS) analysis was performed as described in Gromley et al., J. Cell Biol., 161:535-545 (2003). Briefly, cells were treated with indicated siRNA for at least 50-70 hours, unless otherwise indicated. Cells were synchronized by adding nocodazole to 5 μg/mL for 12 hours prior to cell collection. Cells were collected, fixed in methanol, stained with propidium iodide, and analyzed by flow cytometry (FACSCAN®;Becton Dickinson) using FLOJO® software (Tree Star, Inc.).
FIG. 3A is a graph showing the effects of depleting the indicated centrosomal gene products by siRNA treatment. The left side of the graph depicts the FACS results for treated cells before the addition of nocodazole (-noc). The major fluorescence peak in (-noc) cells is the G1 peak, (i.e., lower DNA fluorescence). The right side of the graph depicts the results for cells after nocodazole treatment (+noc). […] This may be due to inefficient silencing caused by the siRNAs used.
The ability of a number of centrosomal genes to inhibit cell cycling of RPE1 cells was tested by treating cells with siRNAs and performing FACS analysis as described in Example 2.

p53 = assay: Immunofluorescence of p53 and phosphorylated p53 (α-Pser33-p53) localization; conditions: vs silamin
Experimental: A number of experiments were conducted to determine if p53 is required for the cell cycle arrest phenotype described herein. FACS analysis of tandem siRNA-treated cells was performed as described in Example 2. BrDU and DAPI imaging was performed as described in Example 2. Intracellular p53 was visualized using anti-p53 antibody that is specific for activated p53 (i.e., p53 phosphorylated at Serine 33) (“α-Pser33-p53” provided by Yoichi Taya and described in Kishis et al., J. Biol. Chem., 276:39115-3922, 2001)
Translocation of p53 into the nucleus caused by depletion of centrosomal proteins was also observed by immunofluorescence. […] Relatively little p53 translocated from the cytoplasm to the nucleus of silamin.
An antibody specifically reactive for phosphorylated p53 (α-Pser33-p53) was used to determine the phosphorylated state of p53 that accumulates in the nucleus as a result of GCP2 gene product depletion. In FIG. 6F, the left panels depict cells treated with silamin; the right panels depict cells treated with siGCP2. […] The two upper panels show a merged view of (i) the bottom panels and (ii) the same cells stained with DAPI. […] This nuclear localization is confirmed by the overlapping DAPI staining.

In the case of “UCUCGUACUCCAGAAGACU (siRNA; RNA, 3' dTdT, backbone not given here) [siGCP2, siRNA directed to GCP2]”, the “GCP2 level in the centrosome (immunofluorescence)” value (GCP2) was “reduced levels of GCP2 in the centrosome”, the “block of nocodazole-induced shift to G2/M peak at 72 hours” value (RPE cells; 72 hours of siRNA treatment, FIG. 3B) was “effectively blocked the nocodazole-induced shift” and the “inhibition of nocodazole-induced shift from G1 peak to G2/M peak” value (RPE cells; siRNA 50-70 hours, nocodazole 5 μg/mL 12 hours, FIG. 3A, FIG. 8) was “prevented nocodazole-induced shift”. For the same sequence, the “duration of block of nocodazole shift” value (RPE cells; time course, FIG. 3B) was “at least 244 hours”, the “time of siRNA treatment before prevention of the nocodazole shift occurs” value (RPE cells; time course, FIG. 3B) was greater than 48 h and the “p53 accumulation in nucleus (immunofluorescence)” value (p53; FIG. 6E) was “substantially more p53 accumulated in nucleus”. For the same sequence, the “localization of activated p53 (α-Pser33-p53 staining)” value (p53; FIG. 6F) was “activated p53 was detected only in the nucleus”.
